These results are taken from PubChem BioAssay (NCI).

Among the test systems are NCI-H23 lung; OVCAR-3 ovarian; OVCAR-5 ovarian; HOP-92 NSCLC; SK-MEL-28 melanoma; NCI-H522 lung; COLO 205 colon; DU-145 prostate; CAKI-1 renal; ACHN renal.
Holding throughout (test): NCI tumour cell line growth inhibition, 48 h

Each structure is given as a SMILES string.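 Cells were grown in 96-well plates and exposed to each compound for 48 hours at five concentrations; endpoints were interpolated linearly between bracketing concentrations, or set to the highest concentration if not reached. Abbreviation: GI50, concentration required for 50% inhibition of growth. Definition used: TGI = concentration required for complete inhibition of growth.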

Consider `CCN(CC)CCNc1ccc(C)c2sc3cc(Cl)ccc3c(=O)c12`, for which the GI50 was 1.7 µM with NCI-H23 lung; 1.73 µM with OVCAR-3 ovarian; 1.61 µM in the experiment with OVCAR-5 ovarian; 0.665 µM with HOP-92 NSCLC; 1.91 µM in the experiment on SK-MEL-28 melanoma; 2.04 µM in the experiment on NCI-H522 lung. Further, the values for the GI50 in the experiment with COLO 205 colon and with DU-145 prostate were 1.62 µM and 1.78 µM, respectively. For the same compound, the TGI with NCI-H23 lung turned out to be 3.47 µM; in the experiment with OVCAR-3 ovarian, 3.23 µM; with OVCAR-5 ovarian it was 3.1 µM; in the experiment on HOP-92 NSCLC, 2.24 µM; in the experiment with SK-MEL-28 melanoma, 3.52 µM; in the experiment on NCI-H522 lung, 3.77 µM. For the same compound, the TGI in the experiment with COLO 205 colon is 3.35 µM; in the experiment with DU-145 prostate, 3.17 µM.

On to `COc1ccc2sc3cccc(NCCN(C)C)c3c(=O)c2c1`, for which the GI50 in the experiment with NCI-H23 lung is 3.64 µM; with OVCAR-3 ovarian it was 4.65 µM; in the experiment on OVCAR-5 ovarian, 3.42 µM; with SK-MEL-28 melanoma, 2.26 µM; in the experiment on NCI-H522 lung it was 2.79 µM; in the experiment with COLO 205 colon, 1.75 µM. The GI50 in the experiment on CAKI-1 renal was 3.72 µM; in the experiment with ACHN renal it was 2.4 µM; in the experiment on DU-145 prostate it was 4.02 µM. Besides, the TGI in the experiment with NCI-H23 lung was determined as 14.2 µM; in the experiment on OVCAR-3 ovarian, 16.5 µM; in the experiment with OVCAR-5 ovarian it was 14.5 µM; in the experiment on SK-MEL-28 melanoma, 5.3 µM; in the experiment with NCI-H522 lung it was 10.1 µM; with COLO 205 colon, 3.42 µM. Further, the figures for the TGI in the experiment with CAKI-1 renal, in the experiment on ACHN renal and in the experiment with DU-145 prostate were 15.5 µM, 6.92 µM and 13.5 µM, respectively.

Regarding `CO/C=C/C(=O)c1cc2cnc3c(=N)cc(NC(=O)C(C)C)c([nH]1)c23`, the GI50 in the experiment with NCI-H23 lung was 0.0432 µM; in the experiment on OVCAR-3 ovarian it was 0.0418 µM; with OVCAR-5 ovarian, 0.12 µM; in the experiment with HOP-92 NSCLC, 0.00796 µM; in the experiment on SK-MEL-28 melanoma it was 0.0587 µM; in the experiment with NCI-H522 lung it was 0.969 µM. In addition, the results for the GI50 in the experiment on COLO 205 colon, in the experiment with ACHN renal and in the experiment with DU-145 prostate were 0.135 µM, 0.1 µM and 0.0864 µM, respectively. Moreover, the TGI in the experiment with NCI-H23 lung turned out to be 1.83 µM; in the experiment on OVCAR-3 ovarian, 0.353 µM; in the experiment with OVCAR-5 ovarian, 7.41 µM; in the experiment with HOP-92 NSCLC, 0.0456 µM; in the experiment on SK-MEL-28 melanoma it was 0.509 µM; in the experiment with NCI-H522 lung it was 11 µM. Besides, the results for the TGI with COLO 205 colon, with ACHN renal and in the experiment with DU-145 prostate were 0.869 µM, 1.67 µM and 6.35 µM, respectively.

Regarding `O=C1c2[nH]cc(CNC3CN4CCC3CC4)c2C(=O)c2c1c(O)c1ccccc1c2O` (configuration not stated), the GI50 in the experiment with OVCAR-3 ovarian is 1.01 µM; in the experiment with OVCAR-5 ovarian it was 2.01 µM; with HOP-92 NSCLC, 1.1 µM; in the experiment on SK-MEL-28 melanoma, 13 µM; in the experiment with COLO 205 colon, 2.05 µM; in the experiment on CAKI-1 renal it was 0.612 µM. The GI50 with ACHN renal is 2.6 µM; in the experiment with DU-145 prostate, 0.714 µM. Besides, the TGI with OVCAR-3 ovarian stood at 2.22 µM; with OVCAR-5 ovarian, 3.78 µM; in the experiment with SK-MEL-28 melanoma, 34.2 µM; in the experiment on COLO 205 colon, 9.56 µM; with CAKI-1 renal, 2.05 µM; with ACHN renal it was 8.04 µM. Also, the TGI with DU-145 prostate was determined as 7.21 µM.

For the compound `O=C(COc1ccc(/C=C2\COc3ccccc3C2=O)cc1)Nc1nccs1`, the GI50 in the experiment with NCI-H23 lung was 11.2 µM; in the experiment on OVCAR-3 ovarian, 2.73 µM; with OVCAR-5 ovarian, 16.7 µM; in the experiment on SK-MEL-28 melanoma, 13.2 µM; with NCI-H522 lung, 1.91 µM; in the experiment on COLO 205 colon, 14.6 µM. Further, the values for the GI50 with CAKI-1 renal, in the experiment with ACHN renal and with DU-145 prostate were 7.55 µM, 16.6 µM and 4.8 µM, respectively. For the same compound, the TGI in the experiment on NCI-H23 lung was 25.4 µM; in the experiment with OVCAR-3 ovarian it was 5.81 µM; in the experiment with OVCAR-5 ovarian it was 32.9 µM; in the experiment on SK-MEL-28 melanoma, 26.1 µM; in the experiment on NCI-H522 lung, 4.39 µM; in the experiment on COLO 205 colon it was 29 µM. Moreover, the results for the TGI with CAKI-1 renal, in the experiment with ACHN renal and in the experiment with DU-145 prostate were 20.7 µM, 42.3 µM and 14.8 µM, respectively.

`CC[C@@H]1[C@@H](C)O[C@@](O)([C@@H](C)[C@H](O)[C@H](C)[C@H]2OC(=O)/C=C/C=C/[C@H](C)[C@@H]([C@@H](C)[C@@H](O)[C@H](C)[C@@]3(O)C[C@@H](O[C@H]4C[C@@H](O)[C@H](O)C(C)O4)[C@H](CC)[C@@H](C)O3)OC(=O)/C=C/C=C/[C@@H]2C)C[C@H]1O[C@@H]1C[C@@H](O)[C@H](O)C(C)O1` (some centres not stated): the GI50 in the experiment with NCI-H23 lung was 0.0655 µM; in the experiment on OVCAR-3 ovarian it was 0.0791 µM; in the experiment on OVCAR-5 ovarian, 0.0839 µM; with HOP-92 NSCLC, 0.0381 µM; in the experiment on SK-MEL-28 melanoma, 0.0885 µM; in the experiment with NCI-H522 lung it was 0.0885 µM. Moreover, the GI50 with COLO 205 colon is 0.0795 µM; in the experiment with ACHN renal it was 0.111 µM; in the experiment with DU-145 prostate it was 0.0732 µM. For the same compound, the TGI is 0.149 µM with NCI-H23 lung; 0.219 µM in the experiment with OVCAR-3 ovarian; 0.316 µM in the experiment with OVCAR-5 ovarian; 0.125 µM in the experiment on HOP-92 NSCLC; 0.258 µM with SK-MEL-28 melanoma; 0.303 µM in the experiment with NCI-H522 lung. Besides, the TGI came out at 0.179 µM in the experiment on COLO 205 colon, 0.411 µM with ACHN renal and 0.169 µM in the experiment on DU-145 prostate.

For the compound `COC(=O)[C@@H](C)C[C@H](Cc1cn(C)c2ccccc12)NC(=O)c1csc([C@@H](C[C@H](C(C)C)N(C)C(=O)[C@@H](NC(=O)[C@H]2CCCCN2C)C(C)C)OC(C)=O)n1`, the GI50 with NCI-H23 lung was 0.0718 µM; with OVCAR-3 ovarian it was 0.0051 µM; in the experiment on OVCAR-5 ovarian, 0.0671 µM; in the experiment on HOP-92 NSCLC it was 0.0163 µM; in the experiment with SK-MEL-28 melanoma it was greater than 4.36 µM; in the experiment on NCI-H522 lung it was 0.00303 µM. For the same compound, the GI50 with COLO 205 colon was 0.00788 µM; with ACHN renal it was 0.153 µM; in the experiment on DU-145 prostate, 0.00811 µM. Moreover, the TGI was greater than 16.7 µM with NCI-H23 lung; greater than 16.7 µM in the experiment on OVCAR-5 ovarian; 4.02 µM with HOP-92 NSCLC; greater than 16.7 µM in the experiment on SK-MEL-28 melanoma; 0.0108 µM with NCI-H522 lung; 0.0859 µM with COLO 205 colon. For the same compound, the TGI in the experiment with ACHN renal is greater than 16.7 µM.

On to `C=C(C)C1CC/C(C)=C/CCC2(C)OC2CC/C(CO)=C\C1O` (configuration not stated), for which the TGI in the experiment on NCI-H23 lung, in the experiment on OVCAR-3 ovarian, in the experiment with OVCAR-5 ovarian, with HOP-92 NSCLC, in the experiment on SK-MEL-28 melanoma and in the experiment on COLO 205 colon was greater than 100 µM each time. The TGI in the experiment with CAKI-1 renal, in the experiment on ACHN renal and in the experiment with DU-145 prostate was greater than 100 µM throughout.

Regarding `C=C1CC2CCCC12C=O` (configuration not stated), the TGI in the experiment on NCI-H23 lung, in the experiment with OVCAR-3 ovarian, with HOP-92 NSCLC, in the experiment on SK-MEL-28 melanoma, with NCI-H522 lung and in the experiment on COLO 205 colon was greater than 10 µM throughout. Moreover, the TGI in the experiment with CAKI-1 renal, in the experiment on ACHN renal and in the experiment on DU-145 prostate was greater than 10 µM each time.
